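All cell lines were grown in 96-well plates and treated with compound for 48 hours. GI50: concentration for 50% inhibition of growth.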 Calls of active or inactive are those of the source. Cut-off read from the data, not from the text of the source: active = GI50 up to about 1.1 µM and inactive = higher.
Key:
Test in all cases: growth of human tumour cells (NCI), 48 h
786-0 = test system: 786-0
A498 = test system: A498
A549 = test system: A549
ACHN = test system: ACHN
CAKI-1 = test system: CAKI-1
CCRF-CEM = test system: CCRF-CEM
COLO 205 = test system: COLO 205
DLD-1 = test system: DLD-1
DMS-114 = test system: DMS-114
EKVX = test system: EKVX
HCC 2998 = test system: HCC 2998
HCT-116 = test system: HCT-116
HCT-15 = test system: HCT-15
HOP-62 = test system: HOP-62
HOP-92 = test system: HOP-92
HT-29 = test system: HT-29
IGROV-1 = test system: IGROV-1
K562 = test system: K562
KM-20L2 = test system: KM-20L2
KM12 = test system: KM12
LOX IMVI = test system: LOX IMVI
LXFL 529 = test system: LXFL 529
M14 = test system: M14
M19-MEL = test system: M19-MEL
MOLT-4 = test system: MOLT-4
Malme-3M = test system: Malme-3M
NCI-H226 = test system: NCI-H226
NCI-H23 = test system: NCI-H23
NCI-H460 = test system: NCI-H460
NCI-H522 = test system: NCI-H522
OVCAR-3 = test system: OVCAR-3
OVCAR-4 = test system: OVCAR-4
OVCAR-5 = test system: OVCAR-5
OVCAR-8 = test system: OVCAR-8
RPMI-8226 = test system: RPMI-8226
RXF 393 = test system: RXF 393
SF-268 = test system: SF-268
SF-295 = test system: SF-295
SF-539 = test system: SF-539
SK-MEL-28 = test system: SK-MEL-28
SK-MEL-2 = test system: SK-MEL-2
SK-MEL-5 = test system: SK-MEL-5
SK-OV-3 = test system: SK-OV-3
SN12C = test system: SN12C
SNB-19 = test system: SNB-19
SNB-78 = test system: SNB-78
SW-620 = test system: SW-620
TK-10 = test system: TK-10
U-251 = test system: U-251
UACC-257 = test system: UACC-257
UACC-62 = test system: UACC-62
UO-31 = test system: UO-31
XF498 = test system: XF498
HL-60 = test system: HL-60
SNB-75 = test system: SNB-75
SR = test system: SR
BT-549 = test system: BT-549
DU-145 = test system: DU-145
Hs-578T = test system: Hs-578T
MCF7 = test system: MCF7
MDA-MB-231 = test system: MDA-MB-231
MDA-MB-435 = test system: MDA-MB-435
MDA-N = test system: MDA-N
NCI/ADR-RES = test system: NCI/ADR-RES
PC-3 = test system: PC-3
T47D = test system: T47D

With CC1=NN(C(=O)Cc2ccccc2)C(=O)/C1=C\c1ccc([N+](=O)[O-])cc1 the GI50 (786-0) was > 100 µM (inactive), the GI50 (A498) was > 100 µM (inactive) and the GI50 (A549) was > 100 µM (inactive). The GI50 (ACHN) was > 100 µM (inactive), the GI50 (CAKI-1) was > 100 µM (inactive) and the GI50 (CCRF-CEM) was > 100 µM (inactive). The GI50 (COLO 205) was > 100 µM (inactive), the GI50 (DLD-1) was > 100 µM (inactive) and the GI50 (DMS-114) was > 100 µM (inactive). The GI50 (EKVX) was > 100 µM (inactive), the GI50 (HCC 2998) was > 100 µM (inactive) and the GI50 (HCT-116) was > 100 µM (inactive). For the same molecule, the GI50 (HCT-15) was greater than 100000 nM, the GI50 (HOP-62) was > 100 µM (inactive) and the GI50 (HOP-92) was 1.15 µM (inactive). The GI50 (HT-29) was > 100 µM (inactive), the GI50 (IGROV-1) was > 100 µM (inactive) and the GI50 (K562) was > 100 µM (inactive). The GI50 (KM-20L2) was > 100 µM (inactive), the GI50 (KM12) was > 100 µM (inactive) and the GI50 (LOX IMVI) was > 100 µM (inactive). For the same molecule, the GI50 (LXFL 529) was > 100 µM (inactive), the GI50 (M14) was > 100 µM (inactive) and the GI50 (M19-MEL) was > 100 µM (inactive). The GI50 (MOLT-4) was > 100 µM (inactive), the GI50 (Malme-3M) was > 100 µM (inactive) and the GI50 (NCI-H226) was > 100 µM (inactive). The GI50 (NCI-H23) was > 100 µM (inactive), the GI50 (NCI-H460) was > 100 µM (inactive) and the GI50 (NCI-H522) was > 100 µM (inactive). The GI50 (OVCAR-3) was > 100 µM (inactive), the GI50 (OVCAR-4) was > 100 µM (inactive) and the GI50 (OVCAR-5) was > 100 µM (inactive). For the same molecule, the GI50 (OVCAR-8) was > 100 µM (inactive), the GI50 (RPMI-8226) was > 100 µM (inactive) and the GI50 (RXF 393) was > 100 µM (inactive). The GI50 (SF-268) was > 100 µM (inactive), the GI50 (SF-295) was > 100 µM (inactive) and the GI50 (SF-539) was > 100 µM (inactive). For the same molecule, the GI50 (SK-MEL-28) was > 100 µM (inactive), the GI50 (SK-MEL-2) was > 100 µM (inactive) and the GI50 (SK-MEL-5) was > 100 µM (inactive). For the same molecule, the GI50 (SK-OV-3) was > 100 µM (inactive), the GI50 (SN12C) was > 100 µM (inactive) and the GI50 (SNB-19) was > 100 µM (inactive). For the same molecule, the GI50 (SNB-78) was > 100 µM (inactive), the GI50 (SW-620) was > 100 µM (inactive) and the GI50 (TK-10) was > 100 µM (inactive). The GI50 (U-251) was > 100 µM (inactive), the GI50 (UACC-257) was > 100 µM (inactive) and the GI50 (UACC-62) was > 100 µM (inactive). For the same molecule, the GI50 (UO-31) was > 100 µM (inactive) and the GI50 (XF498) was > 100 µM (inactive).
In the case of Cc1cc(C)nc(NS(=O)(=O)c2ccc(NC(=O)c3cccc4c(Nc5ccc(S(=O)(=O)Nc6cc(C)on6)cc5)c5ccccc5nc34)cc2)n1, the GI50 (A498) is reported as 23.8 µM (inactive), the GI50 (ACHN) is reported as 38.6 µM (inactive) and the GI50 (CCRF-CEM) is reported as 28.8 µM (inactive). For the same molecule, the GI50 (DLD-1) was 30.1 µM (inactive), the GI50 (DMS-114) was 20.7 µM (inactive) and the GI50 (EKVX) was 24.9 µM (inactive). The GI50 (HCC 2998) was 14.8 µM (inactive), the GI50 (HCT-116) was 25.9 µM (inactive) and the GI50 (HL-60) was 26.5 µM (inactive). For the same molecule, the GI50 (HOP-62) was 19.1 µM (inactive), the GI50 (HT-29) was 22.2 µM (inactive) and the GI50 (K562) was 28.7 µM (inactive). For the same molecule, the GI50 (KM12) was 16.4 µM (inactive), the GI50 (LOX IMVI) was 18.9 µM (inactive) and the GI50 (LXFL 529) was 16.1 µM (inactive). For the same molecule, the GI50 (M14) was 22.7 µM (inactive), the GI50 (M19-MEL) was 26 µM (inactive) and the GI50 (MOLT-4) was 25.4 µM (inactive). For the same molecule, the GI50 (Malme-3M) was 18 µM (inactive), the GI50 (NCI-H23) was 18.3 µM (inactive) and the GI50 (NCI-H460) was 25.6 µM (inactive). For the same molecule, the GI50 (NCI-H522) was 16.3 µM (inactive), the GI50 (OVCAR-3) was 19.9 µM (inactive) and the GI50 (OVCAR-4) was 23.2 µM (inactive). The GI50 (OVCAR-5) was 16.7 µM (inactive), the GI50 (RXF 393) was 20.1 µM (inactive) and the GI50 (SF-268) was 19.7 µM (inactive). For the same molecule, the GI50 (SF-539) was 17.1 µM (inactive), the GI50 (SK-MEL-28) was 20.7 µM (inactive) and the GI50 (SK-MEL-2) was 19.5 µM (inactive). The GI50 (SK-OV-3) was 27.9 µM (inactive), the GI50 (SN12C) was 23 µM (inactive) and the GI50 (SNB-19) was 15.7 µM (inactive). For the same molecule, the GI50 (SNB-75) was 23.3 µM (inactive), the GI50 (SNB-78) was 41.7 µM (inactive) and the GI50 (SR) was 27.2 µM (inactive). For the same molecule, the GI50 (TK-10) was 34.4 µM (inactive), the GI50 (U-251) was 18.4 µM (inactive) and the GI50 (UACC-257) was 22.2 µM (inactive). For the same molecule, the GI50 (UACC-62) was 20.3 µM (inactive), the GI50 (UO-31) was 35 µM (inactive) and the GI50 (XF498) was 21.1 µM (inactive).
For O=C1C=C(OCCCl)C(=O)c2c(O)ccc(O)c21, the GI50 (786-0) was 1.62 µM (inactive), the GI50 (A498) was 1.28 µM (inactive) and the GI50 (A549) was 0.262 µM (active). The GI50 (ACHN) was 1.54 µM (inactive), the GI50 (BT-549) was 226 nM (active) and the GI50 (CAKI-1) was 2.03 µM (inactive). For the same molecule, the GI50 (CCRF-CEM) was 0.469 µM (active), the GI50 (COLO 205) was 0.181 µM (active) and the GI50 (DU-145) was 290 nM (active). The GI50 (EKVX) was 1.91 µM (inactive), the GI50 (HCC 2998) was 1.63 µM (inactive) and the GI50 (HCT-116) was 0.409 µM (active). For the same molecule, the GI50 (HCT-15) was 209 nM, the GI50 (HL-60) was 1.11 µM (active) and the GI50 (HOP-62) was 0.589 µM (active). The GI50 (HOP-92) was 2.15 µM (inactive), the GI50 (HT-29) was 0.378 µM (active) and the GI50 (Hs-578T) was 3.98 µM (inactive). The GI50 (IGROV-1) was 1.81 µM (inactive), the GI50 (K562) was 2.25 µM (inactive) and the GI50 (KM12) was 2.07 µM (inactive). For the same molecule, the GI50 (LOX IMVI) was 0.202 µM (active), the GI50 (M14) was 0.177 µM (active) and the GI50 (MCF7) was 216 nM (active). For the same molecule, the GI50 (MDA-MB-231) was 1.78 µM (inactive), the GI50 (MDA-MB-435) was 204 nM (active) and the GI50 (MDA-N) was 170 nM (active). For the same molecule, the GI50 (MOLT-4) was 1.72 µM (inactive), the GI50 (Malme-3M) was 0.175 µM (active) and the GI50 (NCI-H226) was 2.26 µM (inactive). For the same molecule, the GI50 (NCI-H23) was 0.242 µM (active), the GI50 (NCI-H460) was 0.395 µM (active) and the GI50 (NCI-H522) was 2.32 µM (inactive). The GI50 (NCI/ADR-RES) was 2.56 µM (inactive), the GI50 (OVCAR-3) was 1.06 µM (active) and the GI50 (OVCAR-4) was 1.64 µM (inactive). The GI50 (OVCAR-5) was 1.59 µM (inactive), the GI50 (OVCAR-8) was 1.94 µM (inactive) and the GI50 (PC-3) was 1.82 µM (inactive). For the same molecule, the GI50 (RPMI-8226) was 2.08 µM (inactive), the GI50 (RXF 393) was 1.92 µM (inactive) and the GI50 (SF-268) was 0.931 µM (active). For the same molecule, the GI50 (SF-295) was 1.56 µM (inactive), the GI50 (SF-539) was 1.36 µM (inactive) and the GI50 (SK-MEL-28) was 0.172 µM (active). For the same molecule, the GI50 (SK-MEL-2) was 0.478 µM (active), the GI50 (SK-MEL-5) was 0.173 µM (active) and the GI50 (SK-OV-3) was 1.71 µM (inactive). The GI50 (SN12C) was 0.225 µM (active), the GI50 (SNB-19) was 1.02 µM (active) and the GI50 (SNB-75) was 0.405 µM (active). For the same molecule, the GI50 (SR) was 0.861 µM (active), the GI50 (T47D) was 2.24 µM (inactive) and the GI50 (TK-10) was 2.38 µM (inactive). The GI50 (U-251) was 1.84 µM (inactive), the GI50 (UACC-257) was 0.177 µM (active) and the GI50 (UACC-62) was 0.228 µM (active). The GI50 (UO-31) was 1.42 µM (inactive).

— ChEMBL document CHEMBL1201862, “PubChem BioAssay data set” (2004)
